Key:
[1] = Color value of reconstituted tigecycline and tigecycline API spiked with Compound I; format: physicochemical; details: spiked into reconstituted tigecycline and tigecycline API; visual observation
Procedure: The spiking concentrations required to produce a clear color change in tigecycline (tigecycline for injection 50 mg/vial (lactose formulation)) was characterized using both a Hunterlab UltraScan XE color spectrophotometer and a quantitative HPLC method. The threshold for visual green color resulting from spiking with Compound I colored degradant was determined for each category of tigecycline samples. An excellent linear correlation (R>0.99) between the concentration of Compound I and the calculated color value is observed. The spiking of tigecycline with ca. 0.045 concentration Compound I results in observation of a slightly green color in the reconstituted tigecycline and tigecycline API. This green color is more pronounced at the higher Compound I concentration. Tables 1, 2, 3 and 4 summarize the calculated color values and HPLC results for tigecycline Registration stability batches (CR0040-50-01, CR0040-50-02, CR0040-50-03), validation stability batches (B41133, B41404, B41710) and API used in the validation stability batches (3000002665, 2000140691, 2000140693). As per the color methods employed the calculated color value is calculated from the measured CIEL*a*b* values using the equation below:
Calculated Color Value=2.19×L*+2.59×a*−0.48×b*
The samples were tested immediately after reconstitution according to the label directions (5.3 ml of 0.9% saline). […]

[2] = Stability / oxidative degradation observations; format: physicochemical; details: result in words
Text: Compound I was isolated from forced degradation samples of tigecycline and is unstable. This blue compound was characterized by LC-MS/MS and NMR as an iminoquinone derivative of tigecycline, an oxidative degradant with a positive ionic formula of C29H38N5O10 formed when tigecycline is exposed to air for twenty-four hours. A linear correlation (R>0.99) between the concentration of Compound I and the calculated color value was discovered. In substantially pure form, Compound I is useful as a test standard for determining the concentration of Compound I in a sample of Tigecycline. Compound I may be obtained in substantially pure form from the compound Tygecycline according to the following method: Tygecycline is degraded at room temperature by dissolving it in water open to air and stirring for a few hours until the solution changes color from yellow/orange to dark green. […]
Compound I was studied by NMR spectroscopy as well. […] A highly intense singlet peak at δH 3.59 was assigned to methyl protons of the C-7 dimethyl amino group, and their associated carbons were detected at δC 47.1 in the HSQC spectrum. […]

| concentration of Compound I that results in a slightly green color [1] | stability [2] | SMILES |
| --- | --- | --- |
| ca. 0.045 |  | CN(C)c1c(O)c(C(N)=O)c(O)c(O)c1C[C@H]1C(C(=O)O)=C(O)C2=C(C(=[N+](C)C)C=C(NC(=O)CNC(C)(C)C)C2=O)[C@@H]1O [Compound I] |
|  | susceptible to oxidative degradation | CN(C)c1cc(NC(=O)CNC(C)(C)C)c(O)c2c1C[C@H]1C[C@H]3[C@H](N(C)C)C(O)=C(C(N)=O)C(=O)[C@@]3(O)C(O)=C1C2=O [tigecycline] |
